In article PMC9698702, “Efficient Preparation of High-Purity Fucoxanthinol by SpyTag-Tailored Active Cholesterol Esterase Aggregates” (Marine Drugs, 2022):

Tested on: T1, free cholesterol esterase
T1 construct: commercial Pseudomonas cholesterol esterase (Sigma-Aldrich), free
Assay: coupled cholesterol oxidase/peroxidase assay at […] nm, Lineweaver-Burk
Assay type: biochemical
Settings: free enzyme; taurocholate, pH 7.0, 37 °C; substrate of the kinetic run not named, taken from the activity assay

`CCCCCCCC/C=C\CCCCCCCC(=O)O[C@H]1CC[C@@]2(C)C(=CC[C@H]3[C@@H]4CC[C@H]([C@H](C)CCCC(C)C)[C@@]4(C)CC[C@@H]32)C1` [cholesteryl oleate] gave a Km of 48.8 µM.
